PubChem BioAssay (NCI)
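Here, GI50 denotes the concentration required for 50% inhibition of growth. TGI: total growth inhibition.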

How the values were obtained:
Assay in all cases: growth of human tumour cells (NCI), 384-well format
IGROV1 ovarian = test system: IGROV1 ovarian
UO-31 renal = test system: UO-31 renal
NCI-H322M lung = test system: NCI-H322M lung
MCF7 breast = test system: MCF7 breast
A549 NSCLC = test system: A549 NSCLC
MDA-MB-231 breast = test system: MDA-MB-231 breast
U251 glioblastoma = test system: U251 glioblastoma
HOP-92 NSCLC = test system: HOP-92 NSCLC
PC-3 prostate = test system: PC-3 prostate
NCI/ADR-RES ovarian = test system: NCI/ADR-RES ovarian
SF-539 CNS = test system: SF-539 CNS
CAKI-1 renal = test system: CAKI-1 renal
TK-10 renal = test system: TK-10 renal
HOP-62 NSCLC = test system: HOP-62 NSCLC
SF-268 CNS = test system: SF-268 CNS
LOX IMVI melanoma = test system: LOX IMVI melanoma
UACC-62 melanoma = test system: UACC-62 melanoma
EKVX NSCLC = test system: EKVX NSCLC
OVCAR-3 ovarian = test system: OVCAR-3 ovarian
A498 renal = test system: A498 renal
HCT-116 colon = test system: HCT-116 colon
OVCAR-5 ovarian = test system: OVCAR-5 ovarian
KM12 colon = test system: KM12 colon
SN12C renal = test system: SN12C renal
HCT-15 colon = test system: HCT-15 colon
786-0 renal = test system: 786-0 renal
SK-OV-3 ovarian = test system: SK-OV-3 ovarian
ACHN renal = test system: ACHN renal
NCI-H226 lung = test system: NCI-H226 lung
RXF 393 renal = test system: RXF 393 renal
NCI-H460 NSCLC = test system: NCI-H460 NSCLC
OVCAR-4 ovarian = test system: OVCAR-4 ovarian
SNB-19 CNS = test system: SNB-19 CNS
K-562 leukemia = test system: K-562 leukemia
SF-295 CNS = test system: SF-295 CNS
OVCAR-8 ovarian = test system: OVCAR-8 ovarian
COLO 205 colon = test system: COLO 205 colon
BT-549 breast = test system: BT-549 breast
HS 578T breast = test system: HS 578T breast
RPMI-8226 leukemia = test system: RPMI-8226 leukemia
NCI-H522 lung = test system: NCI-H522 lung
M14 melanoma = test system: M14 melanoma
MDA-MB-435 melanoma = test system: MDA-MB-435 melanoma
MDA-MB-468 breast = test system: MDA-MB-468 breast
SNB-75 CNS = test system: SNB-75 CNS
SW-620 colon = test system: SW-620 colon
SK-MEL-5 melanoma = test system: SK-MEL-5 melanoma
SR leukemia = test system: SR leukemia
SK-MEL-28 melanoma = test system: SK-MEL-28 melanoma
T-47D breast = test system: T-47D breast
DU-145 prostate = test system: DU-145 prostate
MALME-3M melanoma = test system: MALME-3M melanoma
HCC-2998 colon = test system: HCC-2998 colon
MOLT-4 leukemia = test system: MOLT-4 leukemia
HL-60(TB) leukemia = test system: HL-60(TB) leukemia
HT29 colon = test system: HT29 colon
NCI-H23 lung = test system: NCI-H23 lung
UACC-257 melanoma = test system: UACC-257 melanoma

Question: Which results are given for `CC(=O)O[C@H]1C(=O)[C@@]2(C)[C@H]([C@H](OC(=O)c3ccccc3)[C@]3(O)C[C@H](OC(=O)[C@H](O)[C@@H](NC(=O)c4ccccc4)c4ccccc4)C(C)=C1C3(C)C)[C@]1(OC(C)=O)CO[C@@H]1C[C@@H]2O`?
Answer: TGI (IGROV1 ovarian): > 67.9 µM; GI50 (UO-31 renal): 0.348 µM; TGI (UO-31 renal): > 69.3 µM; GI50 (NCI-H322M lung): 0.014 µM; TGI (NCI-H322M lung): > 100 µM; TGI (MCF7 breast): > 46.2 µM; TGI (A549 NSCLC): > 46.4 µM; TGI (MDA-MB-231 breast): 22.7 µM; TGI (U251 glioblastoma): > 31.6 µM; TGI (HOP-92 NSCLC): 28 µM; TGI (PC-3 prostate): > 100 µM; GI50 (NCI/ADR-RES ovarian): 3.1 µM; TGI (NCI/ADR-RES ovarian): 9.24 µM; TGI (SF-539 CNS): 0.0123 µM; GI50 (CAKI-1 renal): 0.0507 µM; TGI (CAKI-1 renal): > 100 µM; GI50 (TK-10 renal): 0.0337 µM; TGI (TK-10 renal): 28 µM; TGI (HOP-62 NSCLC): 14.7 µM; TGI (SF-268 CNS): 31.4 µM; TGI (LOX IMVI melanoma): 37.3 µM; TGI (UACC-62 melanoma): 18.8 µM; GI50 (EKVX NSCLC): 0.039 µM; TGI (EKVX NSCLC): > 31.6 µM; TGI (OVCAR-3 ovarian): 0.144 µM; GI50 (A498 renal): 0.0265 µM; TGI (A498 renal): 36.3 µM; TGI (HCT-116 colon): > 100 µM; TGI (OVCAR-5 ovarian): > 83.8 µM; TGI (KM12 colon): > 100 µM; TGI (SN12C renal): 99.9 µM; GI50 (HCT-15 colon): 0.0889 µM; TGI (HCT-15 colon): 25 µM; GI50 ([…]-0 renal): 0.0191 µM; TGI (786-0 renal): > 54.4 µM; TGI (SK-OV-3 ovarian): > 31.6 µM; GI50 (ACHN renal): 0.0611 µM; TGI (ACHN renal): 45.8 µM; GI50 (NCI-H226 lung): 0.745 µM; TGI (NCI-H226 lung): 19.2 µM; GI50 (RXF 393 renal): < 0.0116 µM; TGI (RXF 393 renal): 0.022 µM; TGI (NCI-H460 NSCLC): < 0.013 µM; TGI (OVCAR-4 ovarian): > 69.5 µM; TGI (SNB-19 CNS): > 71.1 µM; TGI (K-562 leukemia): < 0.013 µM; GI50 (SF-295 CNS): 0.0114 µM; TGI (SF-295 CNS): 0.0364 µM; TGI (OVCAR-8 ovarian): 0.0102 µM

Question: Which results are given for `CNC(=O)c1ccc(N2C(=S)N(c3ccc(C#N)c(C(F)(F)F)c3)C(=O)C2(C)C)cc1F`?
Answer: GI50 (COLO 205 colon): 95.5 µM; TGI (COLO 205 colon): > 100 µM; GI50 (IGROV1 ovarian): 52.1 µM; TGI (IGROV1 ovarian): > 100 µM; GI50 (UO-31 renal): 63.1 µM; TGI (UO-31 renal): > 100 µM; GI50 (NCI-H322M lung): 93.8 µM; TGI (NCI-H322M lung): > 100 µM; GI50 (MCF7 breast): 37.6 µM; TGI (MCF7 breast): > 100 µM; GI50 (BT-549 breast): 31.7 µM; TGI (BT-549 breast): 95.5 µM; GI50 (HS 578T breast): 30.9 µM; TGI (HS 578T breast): > 100 µM; GI50 (RPMI-8226 leukemia): 32 µM; TGI (RPMI-8226 leukemia): > 100 µM; GI50 (A549 NSCLC): 34.4 µM; TGI (A549 NSCLC): > 100 µM; GI50 (MDA-MB-231 breast): 95.6 µM; TGI (MDA-MB-231 breast): > 100 µM; GI50 (NCI-H522 lung): 74 µM; TGI (NCI-H522 lung): > 100 µM; GI50 (U251 glioblastoma): 61.9 µM; TGI (U251 glioblastoma): > 100 µM; GI50 (HOP-92 NSCLC): > 100 µM; TGI (HOP-92 NSCLC): > 100 µM; GI50 (PC-3 prostate): 49.6 µM; TGI (PC-3 prostate): > 100 µM; GI50 (NCI/ADR-RES ovarian): 27.5 µM; TGI (NCI/ADR-RES ovarian): 90.9 µM; GI50 (SF-539 CNS): > 100 µM; TGI (SF-539 CNS): > 100 µM; GI50 (CAKI-1 renal): 90.8 µM; TGI (CAKI-1 renal): > 100 µM; GI50 (M14 melanoma): 81.9 µM; TGI (M14 melanoma): > 100 µM; GI50 (TK-10 renal): > 100 µM; TGI (TK-10 renal): > 100 µM; GI50 (HOP-62 NSCLC): 27.5 µM; TGI (HOP-62 NSCLC): 84.9 µM; GI50 (SF-268 CNS): 72.2 µM; TGI (SF-268 CNS): > 100 µM; GI50 (MDA-MB-435 melanoma): > 100 µM; TGI (MDA-MB-435 melanoma): > 100 µM; GI50 (MDA-MB-468 breast): 26.9 µM; TGI (MDA-MB-468 breast): 80.2 µM; GI50 (LOX IMVI melanoma): 49.6 µM; TGI (LOX IMVI melanoma): > 100 µM; GI50 (UACC-62 melanoma): > 100 µM; TGI (UACC-62 melanoma): > 100 µM; GI50 (SNB-75 CNS): 48.5 µM; TGI (SNB-75 CNS): > 100 µM; GI50 (EKVX NSCLC): 44.8 µM; TGI (EKVX NSCLC): > 100 µM; GI50 (SW-620 colon): > 100 µM; TGI (SW-620 colon): > 100 µM; GI50 (OVCAR-3 ovarian): 59.2 µM; TGI (OVCAR-3 ovarian): > 100 µM; GI50 (SK-MEL-5 melanoma): 41.4 µM; TGI (SK-MEL-5 melanoma): > 100 µM; GI50 (A498 renal): 54.7 µM; TGI (A498 renal): > 100 µM; GI50 (SR leukemia): 33.5 µM; TGI (SR leukemia): 49.7 µM; GI50 (HCT-116 colon): 33.7 µM; TGI (HCT-116 colon): > 100 µM; GI50 (SK-MEL-28 melanoma): > 100 µM; TGI (SK-MEL-28 melanoma): > 100 µM; GI50 (T-47D breast): 32.9 µM; TGI (T-47D breast): > 100 µM; GI50 (DU-145 prostate): 37.5 µM; TGI (DU-145 prostate): > 100 µM; GI50 (OVCAR-5 ovarian): > 100 µM; TGI (OVCAR-5 ovarian): > 100 µM; GI50 (MALME-3M melanoma): 24.1 µM; TGI (MALME-3M melanoma): > 100 µM; GI50 (HCC-2998 colon): 93.4 µM; TGI (HCC-2998 colon): > 100 µM; GI50 (KM12 colon): 69.1 µM; TGI (KM12 colon): > 100 µM; GI50 (SN12C renal): > 100 µM; TGI (SN12C renal): > 100 µM; GI50 (HCT-15 colon): 46 µM; TGI (HCT-15 colon): > 100 µM; GI50 ([…]-0 renal): > 100 µM; TGI (786-0 renal): > 100 µM; GI50 (SK-OV-3 ovarian): > 100 µM; TGI (SK-OV-3 ovarian): > 100 µM; GI50 (ACHN renal): 19.8 µM; TGI (ACHN renal): 40.4 µM; GI50 (NCI-H226 lung): 29.9 µM; TGI (NCI-H226 lung): > 100 µM; GI50 (MOLT-4 leukemia): 18.1 µM; TGI (MOLT-4 leukemia): 35.3 µM; GI50 (RXF 393 renal): 29.6 µM; TGI (RXF 393 renal): 85.7 µM; GI50 (HL-60(TB) leukemia): 17 µM; TGI (HL-60(TB) leukemia): 34.5 µM; GI50 (HT29 colon): 82.9 µM; TGI (HT29 colon): > 100 µM; GI50 (NCI-H23 lung): 31.3 µM; TGI (NCI-H23 lung): > 100 µM; GI50 (NCI-H460 NSCLC): 38.9 µM; TGI (NCI-H460 NSCLC): > 100 µM; GI50 (UACC-257 melanoma): 72.4 µM; TGI (UACC-257 melanoma): > 100 µM; GI50 (OVCAR-4 ovarian): 34.7 µM; TGI (OVCAR-4 ovarian): 92.6 µM; GI50 (SNB-19 CNS): 85.4 µM; TGI (SNB-19 CNS): > 100 µM; GI50 (SF-295 CNS): 31.6 µM; TGI (SF-295 CNS): > 100 µM; GI50 (OVCAR-8 ovarian): 37.6 µM; TGI (OVCAR-8 ovarian): > 100 µM
